# Laboratory results reported in BindingDB's records for doi:10.1021/jm960012o (Allergan, 1996).
# Test: Displacement of [3H]-clonidine from bovine imidazoline receptor I-1
row,Ki,SMILES
1,8.9 nM,"Clc1cccc(Cl)c1N=C1NCCN1 [2-(2,6-dichloroanilino)-2-imidazoline]"
2,42 nM,CC(C)C1C2CCC(C2)C1N (centres undefined) [3-Isopropyl-bicyclo[2.2.1]hept-2-ylamine]
3,> 100000 nM,"NC[C@H](O)c1ccc(O)c(O)c1 [4-[(1R)-2-amino-1-hydroxyethyl]benzene-1,2-diol]"
4,56 nM,COc1nc(C)nc(Cl)c1N=C1NCCN1 [(4-Chloro-6-methoxy-2-methyl-pyrimidin-5-yl)-imidazolidin-2-ylidene-amine]
